The values that follow come from publication PMC4898059 (ACS infectious diseases, 2016).

One assay has as its system MSSA (ATCC 25923). Nature of the assay: MIC, broth, methicillin-sensitive S. aureus. As to conditions: for MIC MSSA: modal value of experimental triplicates; for MIC: Staphylococcus aureus, ATCC25923|MSSA, read-out: MIC MSSA.
A further assay has as its system MRSA (BAA 1762). Nature of the assay: MIC, broth, methicillin-resistant S. aureus. The settings on record: for MIC MRSA: modal value of experimental triplicates; for MIC: Staphylococcus aureus, BAA1762|MRSA.
The subject of assay [1] is MRSA cells. The assay can be described thus: Menaquinone-8. Type of assay: cell-based, Staphylococcus aureus. The settings on record: 1/10, 1/5, 1/3 and ½ MIC.
The subject of the next assay is M. tuberculosis. The settings on record: ref Li, X., et al. ACS Med Chem Lett, 2011; cited from earlier work.
A further assay concerns E. coli (ATCC 25922). The assay can be described thus: MIC, E. coli. The settings on record: for MIC: Escherichia coli.
For assay [2], the system named is Klebsiella pneumoniae (ATCC 13883). The assay can be described thus: MIC, K. pneumoniae. As to conditions: for MIC: Klebsiella pneumoniae.
The subject of assay [3] is MRSA. Nature of the assay: Systemic MRSA infection mouse model. Type of assay: in vivo, Swiss Webster mice. The settings on record: mice, IP infection, 100 mg/kg SC at 1, 12 and 24 hr post infection.
The subject of assay [4] is Proteus mirabilis (ATCC 35659). Nature of the assay: MIC, P. mirabilis. The settings on record: for MIC: Proteus mirabilis.
For assay [5], the system named is Pseudomonas aeruginosa (ATCC 27853). Nature of the assay: MIC, P. aeruginosa. The settings on record: for MIC: Pseudomonas aeruginosa.
The test system of assay [6] is MRSA. The assay can be described thus: Neutropenic thigh MRSA infection mouse model. Type of assay: in vivo, Swiss Webster mice. As to conditions: for Reduction of bacterial load in thigh: neutropenic mice, 100 mg/kg SC at 1 and 12 hr post infection.
For assay [7], the system named is Bacillus subtilis (ATCC 6051). Nature of the assay: MIC, B. subtilis.
The test system of assay [8] is Enterococcus faecium (ATCC 19434). Nature of the assay: MIC, E. faecium.
The test system of assay [9] is Haemophilus influenzae (ATCC 49427). The assay can be described thus: MIC, H. influenzae. The settings on record: for MIC: Haemophilus influenzae.
The subject of assay [10] is MRSA cells. The assay can be described thus: DHNA level in treated MRSA cells by LC/UV/MS. The settings on record: MRSA cells treated with 8 µg/mL for 18 hr.
Assay [11] concerns MRSA. The assay can be described thus: Agar MIC and colony morphology on tryptic soy agar. Type of assay: cell-based, Staphylococcus aureus.
The target of a further assay is saMenB (Staphylococcus aureus, UniProt Q5HH38). Nature of the assay: Isothermal titration calorimetry with saMenB. Type of assay: binding, S. aureus. In general terms: Isothermal titration calorimetry measures the heat released or taken up as one component is titrated into another.

SMILES strings stand for the structures. ≈ marks a conversion by molar mass, not a printed value. Read-outs that look alike come from different tables or passages of the source.

Chain of saMenB (Q5HH38 whole entry): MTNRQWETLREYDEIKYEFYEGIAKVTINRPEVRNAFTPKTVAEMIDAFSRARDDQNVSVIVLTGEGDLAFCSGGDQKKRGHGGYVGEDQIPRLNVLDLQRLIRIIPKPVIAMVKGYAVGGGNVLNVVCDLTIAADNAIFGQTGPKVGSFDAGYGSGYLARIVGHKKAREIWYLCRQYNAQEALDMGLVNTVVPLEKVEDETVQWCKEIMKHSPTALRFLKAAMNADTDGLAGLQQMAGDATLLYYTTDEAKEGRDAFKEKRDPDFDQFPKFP

Consider `COC(=O)C=CC(=O)c1ccc(Br)cc1` [Compound 3], for which the “MIC MSSA” value against MSSA (ATCC 25923) came to 8 µg/mL (≈ 29.7 µM). Moreover, in the assay with MRSA (BAA 1762), the “MIC MRSA” value is listed as 16 µg/mL (≈ 59.5 µM).

As to `COC(=O)C=CC(=O)c1ccc(Cl)cc1` [Compound 1, methyl 4-(4-chlorophenyl)-4-oxobut-2-enoate], the MIC in the assay with MSSA (ATCC 25923) is 0.35 µg/mL (≈ 1.56 µM); in the assay on E. coli (ATCC 25922) (ATCC25922, read-out: MIC + MK-4), > 60 µg/mL; in the assay on E. coli (ATCC 25922) (ATCC25922, read-out: MIC aerobic), > 60 µg/mL; with E. coli (ATCC 25922) (ATCC25922, read-out: MIC anaerobic), 15.5 µg/mL (≈ 69 µM); in the assay with E. coli (ATCC 25922) (ATCC25922, read-out: MIC capnophilic) it was 15.5 µg/mL (≈ 69 µM); in assay [2] (ATCC13883, read-out: MIC + MK-4), > 60 µg/mL. Also, the MIC was > 60 µg/mL in [2] (ATCC13883, read-out: MIC aerobic); 62.5 µg/mL (≈ 278 µM) in assay [2] (ATCC13883, read-out: MIC anaerobic); > 60 µg/mL in assay [2] (ATCC13883, read-out: MIC capnophilic); 31.5 µg/mL in [4] (ATCC35659, read-out: MIC + MK-4); > 60 µg/mL in assay [4] (ATCC35659, read-out: MIC aerobic); 12.5 µg/mL (≈ 55.6 µM) in assay [4] (ATCC35659, read-out: MIC anaerobic). The MIC in assay [4] (ATCC35659, read-out: MIC capnophilic) is 12.5 µg/mL (≈ 55.6 µM); in [5] (ATCC27853, read-out: MIC aerobic), > 60 µg/mL; in assay [5] (ATCC27853, read-out: MIC anaerobic), > 60 µg/mL; in [5] (ATCC27853, read-out: MIC capnophilic) it was > 60 µg/mL; with MRSA (BAA 1762) (read-out: MIC + MK-4), > 60 µg/mL; in the assay on MRSA (BAA 1762) (read-out: MIC MRSA) it was 0.75 µg/mL (≈ 3.34 µM). Besides, the MIC is 0.75 µg/mL (≈ 3.34 µM) in the assay with MRSA (BAA 1762) (read-out: MIC aerobic); 0.37 µg/mL (≈ 1.65 µM) in the assay with MRSA (BAA 1762) (read-out: MIC anaerobic); 0.37 µg/mL (≈ 1.65 µM) in the assay on MRSA (BAA 1762) (read-out: MIC capnophilic); > 60 µg/mL in assay [7] (ATCC6051, read-out: MIC + MK-4); 8 µg/mL (≈ 35.6 µM) in [7] (ATCC6051, read-out: MIC aerobic); 2 µg/mL (≈ 8.9 µM) in [7] (ATCC6051, read-out: MIC anaerobic). For the same compound, the MIC is 4 µg/mL (≈ 17.8 µM) in assay [7] (ATCC6051, read-out: MIC capnophilic); 31.5 µg/mL in [8] (ATCC19434, read-out: MIC + MK-4); 4 µg/mL (≈ 17.8 µM) in [8] (ATCC19434, read-out: MIC aerobic); 1.25 µg/mL (≈ 5.56 µM) in [8] (ATCC19434, read-out: MIC anaerobic); 2.5 µg/mL (≈ 11.1 µM) in assay [8] (ATCC19434, read-out: MIC capnophilic); > 60 µg/mL in assay [9] (ATCC49427, read-out: MIC + MK-4). Also, the MIC in [9] (ATCC49427, read-out: MIC capnophilic) stood at 0.25 µg/mL (≈ 1.11 µM). The “Change in MK-8 with increasing concentration” value in the assay on MRSA cells [1] was “dose dependent decrease”. The MIC aerobic was 0.64 µg/mL (≈ 2.85 µM) in the assay with M. tuberculosis; “no activity” against E. coli (ATCC 25922) (E. coli, aerobic); “no activity” in assay [2] (K. pneumoniae, aerobic); “no activity” in assay [4] (P. mirabilis, aerobic); “no activity” in assay [5] (P. aeruginosa, aerobic). The MIC anaerobic in assay [2] (K. pneumoniae, anaerobic (GasPak)) is 62.5 µg/mL (≈ 278 µM); in [5] (P. aeruginosa, anaerobic (GasPak)), “no activity”. In the assay with MRSA [3], the “Survival rate (days post infection)” value is listed as 4.6 days. Besides, the MIC capnophilic result is “no activity” in assay [5] (P. aeruginosa, capnophilic (candle jar)) and 0.25 µg/mL (≈ 1.11 µM) in [9] (H. influenzae, capnophilic (candle jar)). The “Reduction of bacterial load in thigh” value in the assay on MRSA [6] came to 3.1 log CFU/gram tissue. For the same compound, the “Dose dependence of bacterial burden in thigh” value in the assay with MRSA [6] (neutropenic mice, 25, 50 and 100 mg/kg SC) is “dose dependent reduction”. For the same compound, the “DHNA in treated cells” value in the assay with MRSA cells [10] is “could not be detected”. Further, the Colony morphology entry in the assay on MRSA [11] (MRSA on TSA with 4 µg/mL (½ agar MIC), 48 hr) is listed as “SCV phenotype”. Further, in the assay on MRSA [11] (MRSA on TSA with 16 µg/mL (2x agar-MIC) and 10 µM MK-4), the “Growth with MK-4 complementation” value is recorded as “wild-type growth”. For the same compound, in the assay on MRSA [11] (MRSA on tryptic soy agar, no growth after 72 hr), the “Agar MIC” value amounted to 8 µg/mL.

`O=C(O)C=CC(=O)c1ccc(Cl)cc1` [Compound 6]: the “MIC MSSA” value in the assay with MSSA (ATCC 25923) is > 60 µg/mL. For the same compound, in the assay with MRSA (BAA 1762), the “MIC MRSA” value is on record as > 60 µg/mL.

On to `CN[C@H](CC(C)C)C(=O)N[C@H]1C(=O)N[C@@H](CC(N)=O)C(=O)N[C@H]2C(=O)N[C@H]3C(=O)N[C@H](C(=O)N[C@H](C(=O)O)c4cc(O)cc(O)c4-c4cc3ccc4O)[C@H](O)c3ccc(c(Cl)c3)Oc3cc2cc(c3O[C@@H]2O[C@H](CO)[C@@H](O)[C@H](O)[C@H]2O[C@H]2C[C@](C)(N)[C@H](O)[C@H](C)O2)Oc2ccc(cc2Cl)[C@H]1O` [Vancomycin, reference compound], for which the MIC came out at 2 µg/mL (≈ 1.38 µM) with MSSA (ATCC 25923) and 4 µg/mL (≈ 2.76 µM) in the assay on MRSA (BAA 1762) (read-out: MIC MRSA). Further, in the assay on MRSA [3], the “Survival rate (days post infection)” value came to 5.8 days. Moreover, the “Reduction of bacterial load in thigh” value with MRSA [6] worked out at 4.2 log CFU/gram tissue.

As a reminder, the Kd is the constant that tells how readily two partners part at equilibrium. A high value points to lower affinity. For `CC(C)(COP(=O)(O)OP(=O)(O)OC[C@H]1O[C@@H](n2cnc3c(N)ncnc32)[C@H](O)[C@@H]1OP(=O)(O)O)[C@@H](O)C(=O)NCCC(=O)NCCS` [CoA, coenzyme A], binding at saMenB was put at a Kd of 25 ± 4 µM.

In the case of `COC(=O)C=CC(=O)c1ccc(F)cc1` [Compound 2], in the assay with MSSA (ATCC 25923), the “MIC MSSA” value was found to be 8 µg/mL (≈ 38.4 µM). For the same compound, the “MIC MRSA” value in the assay on MRSA (BAA 1762) is recorded as 12 µg/mL (≈ 57.6 µM).

Turning to `COC(=O)C=CC(=O)c1ccc(Cl)cc1Cl` [Compound 5], in the assay with MSSA (ATCC 25923), the “MIC MSSA” value came out at 1 µg/mL (≈ 3.86 µM). Moreover, the “MIC MRSA” value in the assay with MRSA (BAA 1762) is recorded as 2 µg/mL (≈ 7.72 µM).

On to `COC(=O)C=CC(=O)c1ccc([N+](=O)[O-])cc1` [Compound 4], for which the “MIC MSSA” value against MSSA (ATCC 25923) is 4 µg/mL (≈ 17 µM). Moreover, the “MIC MRSA” value in the assay with MRSA (BAA 1762) was 4 µg/mL (≈ 17 µM).

In the case of `Cc1onc(-c2ccccc2)c1C(=O)N[C@@H]1C(=O)N2[C@@H]1SC(C)(C)[C@@H]2C(=O)O` [Oxacillin, reference compound], the MIC is 0.1 µg/mL (≈ 0.249 µM) with MSSA (ATCC 25923) and > 128 µg/mL in the assay on MRSA (BAA 1762) (read-out: MIC MRSA). Moreover, the “Survival rate (days post infection)” value in the assay on MRSA [3] is 1.5 to 1.6 days. Also, the “Reduction of bacterial load in thigh” value in the assay with MRSA [6] is recorded as “minimal effect”.
